The assay concerns soft tissue sarcoma. The assay is described as follows: 3D clonogenic assay, Example 1, soft tissue sarcoma. It counts as cell-based. The settings on record: n=10 models. The protocol: In the present study, plinabulin was characterized for its ability to inhibit anchorage independent growth and ex vivo colony formation of tumor cells in semi-solid medium. The compound was investigated in 87 out of 93 originally planned tumor xenografts representing all major cancer types using a 3D clonogenic assay in a 96-well format with colony count based on image analysis as read-out. By using this assay, the investigational compound was assessed for the ability to inhibit anchorage independent growth and ex vivo colony formation of tumor cells in semi-solid medium.
A master stock solution of plinabulin was prepared by dissolving the compound in DMSO at a concentration of 9.9 mM. Working stock solutions were prepared by diluting the master stock solution with DMSO to a concentration of 0.99 mM (330-fold the highest test concentration). Small aliquots of the master and working stock were stored at −20° C. […]
Plinabulin was investigated in 87 PDX models representing a number of cancer types. […] The percentage of viable cells was determined in a Neubauer-hemocytometer using trypan blue exclusion. […]
The clonogenic assay was carried out in a 96 well plate format using ultra low attachment plates. […] Cultures were incubated at 37° C. and 7.5% CO2 in a humidified atmosphere 13 days in total and monitored closely for colony growth using an inverted microscope. […]

Consider `CC(C)(C)c1[nH]cnc1/C=c1\[nH]c(=O)/c(=C/c2ccccc2)[nH]c1=O` [plinabulin, (3Z,6Z)-3-Benzylidene-6-{[5-(2-methyl-2-propanyl)-1H-imidazol-4-yl]methylene}-2,5-piperazinedione], for which the “geom. mean absolute IC70” value was determined as 57 nM.

Values taken from patent US20240408082A1, “METHODS FOR TREATING CANCERS AND TUMORS” (BEYONDSPRING PHARMACEUTICALS, INC., priority 2021, published 2024).
